Assay results published in patent publication US8192962B2, “Processes for detecting toxic substances” (Daikin Industries, Ltd., priority 2001, dated 2012).

System: Mitochondria-located protein genes
Test: DNA chip mRNA expression in yeast, mitochondria-located protein genes (Table 2)
Type: cell-based, Saccharomyces cerevisiae S288C
Details: cells incubated two hours with the chemical substance
Protocol: Yeast (Saccharomyces cerevisiae S288C (α SUC2mal mel gap2 CUP1)) were incubated at 25° C. on YPD medium (yeast extract 1%, polypepton 2%, glucose 2%). One of toxic chemical substances was added to the cells at logarithmic growth phase, and the cells were further incubated for two hours. Cells were cultured without any chemical substance in the same condition, and were used as control. Concentrations of the chemical substances were defined to inhibit the growth of the yeast but not lead to death.
After completion of the incubation, the culture was centrifuged to collect the cells. To the cells, sodium acetate buffer (50 mM sodium acetate, 10 mM EDTA, 1% SDS) was added, and the mixture was shaken at 65° C. for five minutes, followed by returning to room temperature, and obtaining the supernatant, of which the procedures were repeated two times. To the supernatant, ½ amount of a solution of phenol/chloroform was added, and the mixture was centrifuged to give a supernatant, which was added with an equal amount of chloroform, and the mixture was centrifuged to give a supernatant. To the supernatant, an equal amount of isopropanol containing 0.3 M sodium acetate was added, and the mixture was allowed to stand at room temperature for 30 minutes, after which the mixture was centrifuged to give a sediment of the whole RNAs. Seventy % ethanol was added to the sediment, and the mixture was again centrifuged to give a sediment, which was then dried and dissolved in water. mRNA was isolated from the whole RNAs as followings. In view of the fact that a poly A chain is attached to the 3′ terminus of mRNA, a polynucleotide having a poly T structure which was immobilized on the surface of latex beads was used to trap the mRNA, and then the mRNA was washed and eluted with spine column (Oligotex-dT30<Super>mRNA Purification Kit, Takara). Reverse transcription of the mRNA was conducted with a reverse transcriptase (Super Script II Reverse Transcriptase; catalogue No. 18064-014, GibcoBRL) using fluorescence-labeled nucleotides to give cDNAs that were introduced with Cy3-dUTP or Cy5-dUTP during the reverse transcription.
The labeled cDNAs were dissolved in TE buffer (10mM Tris-HCl/1 mM EDTA, pH8.0), and the solution was dropped on the DNA chip containing the whole genes of yeast (DNA Chip Research Inc. Japan) so that the cDNAs were hybridized on the DNA chip at 65° C. for over 12 hours. The fluoresces intensity of the DNA chip was read with a scanner, and the ratio relative to the fluorescence intensity resulting from the absence of chemical substance was estimated as the following, which is shown in Tables 1 to 9: […]

For `C[S+](C)[O-]` [(15), dimethylsulfoxide], the “The level of expressed mRNA in the presence of chemical substance/The level of expressed mRNA in the absence of chemical substance” value (yeast gene YBR029C) was 3.5, the “The level of expressed mRNA in the presence of chemical substance/The level of expressed mRNA in the absence of chemical substance” value (yeast gene YBR291C) was 0.5 and the “The level of expressed mRNA in the presence of chemical substance/The level of expressed mRNA in the absence of chemical substance” value (yeast gene YDR529C) was 0.5. For the same molecule, the “The level of expressed mRNA in the presence of chemical substance/The level of expressed mRNA in the absence of chemical substance” value (yeast gene YEL039C) was 0.4, the “The level of expressed mRNA in the presence of chemical substance/The level of expressed mRNA in the absence of chemical substance” value (yeast gene YGR029W) was 0.4 and the “The level of expressed mRNA in the presence of chemical substance/The level of expressed mRNA in the absence of chemical substance” value (yeast gene YGR062C) was 0.5. The “The level of expressed mRNA in the presence of chemical substance/The level of expressed mRNA in the absence of chemical substance” value (yeast gene YGR076C) was 0.5, the “The level of expressed mRNA in the presence of chemical substance/The level of expressed mRNA in the absence of chemical substance” value (yeast gene YIL022W) was 2.9 and the “The level of expressed mRNA in the presence of chemical substance/The level of expressed mRNA in the absence of chemical substance” value (yeast gene YIL094C) was 0.5. The “The level of expressed mRNA in the presence of chemical substance/The level of expressed mRNA in the absence of chemical substance” value (yeast gene YJL166W) was 0.5, the “The level of expressed mRNA in the presence of chemical substance/The level of expressed mRNA in the absence of chemical substance” value (yeast gene YKL085W) was 0.5 and the “The level of expressed mRNA in the presence of chemical substance/The level of expressed mRNA in the absence of chemical substance” value (yeast gene YKL170W) was 0.8. The “The level of expressed mRNA in the presence of chemical substance/The level of expressed mRNA in the absence of chemical substance” value (yeast gene YKL194C) was 0.8, the “The level of expressed mRNA in the presence of chemical substance/The level of expressed mRNA in the absence of chemical substance” value (yeast gene YKR052C) was 0.5 and the “The level of expressed mRNA in the presence of chemical substance/The level of expressed mRNA in the absence of chemical substance” value (yeast gene YLL041C) was 0.4. The “The level of expressed mRNA in the presence of chemical substance/The level of expressed mRNA in the absence of chemical substance” value (yeast gene YLR295C) was 0.5, the “The level of expressed mRNA in the presence of chemical substance/The level of expressed mRNA in the absence of chemical substance” value (yeast gene YLR395C) was 0.4 and the “The level of expressed mRNA in the presence of chemical substance/The level of expressed mRNA in the absence of chemical substance” value (yeast gene YML110C) was 1.3. For the same molecule, the “The level of expressed mRNA in the presence of chemical substance/The level of expressed mRNA in the absence of chemical substance” value (yeast gene YML120C) was 0.5, the “The level of expressed mRNA in the presence of chemical substance/The level of expressed mRNA in the absence of chemical substance” value (yeast gene YOR037W) was 0.9 and the “The level of expressed mRNA in the presence of chemical substance/The level of expressed mRNA in the absence of chemical substance” value (yeast gene YOR374W) was 2.5.
